Results reported in the NIST ThermoML archive (doi:10.1016/j.fluid.2011.07.007).
“And” between values parts separate entries of the source, which are not always exact repeats. Equal entries are not always repeated. Structures can show the parent of a compound that is named as a salt. Numbers after ± are expanded uncertainties.

Details: Transpiration method

CC(C)(C)OC(=O)CC(=O)OC(C)(C)C [bis(1,1-dimethylethyl) propanedioate]
Liquid
Details | vapor or sublimation pressure [kPa]
293.7 K | 0.00787 ± 0.00064
295.7 K | 0.00952 ± 0.00075
298.6 K | 0.0122 ± 0.001
301.7 K | 0.0159 ± 0.0012
303.6 K | 0.0186 ± 0.0014
306.6 K | 0.023 ± 0.0017
308.6 K | 0.0274 ± 0.0022
310.7 K | 0.0337 ± 0.0027
312.6 K | 0.0399 ± 0.0031
315.6 K | 0.0494 ± 0.0036
317.6 K | 0.055 ± 0.0042
319.6 K | 0.0663 ± 0.0049
321.6 K | 0.0714 ± 0.0053
323.6 K | 0.0845 ± 0.0065
324.7 K | 0.0934 ± 0.0071
327.6 K | 0.1125 ± 0.0089
333.5 K | 0.1828 ± 0.013
336.5 K | 0.2131 ± 0.016
339.5 K | 0.2702 ± 0.02
342.5 K | 0.333 ± 0.025
345.5 K | 0.3886 ± 0.028

CC(C)(C)OC(=O)CCCCC(=O)OC(C)(C)C [di-tert-butyl adipate]
Liquid
Details | vapor or sublimation pressure [kPa]
322.6 K | 0.00711 ± 0.00055
323.4 K | 0.00757 ± 0.00058
326.2 K | 0.00926 ± 0.0007
329 K | 0.0113 ± 0.00086
331.8 K | 0.01428 ± 0.0011
336 K | 0.01907 ± 0.0014
338 K | 0.02216 ± 0.0017
341 K | 0.02859 ± 0.0021
344 K | 0.03272 ± 0.0024
346.9 K | 0.04033 ± 0.0031
349.9 K | 0.0511 ± 0.0038
352.9 K | 0.06145 ± 0.0046
355.9 K | 0.07647 ± 0.0057
358.9 K | 0.09287 ± 0.0069
361.9 K | 0.1117 ± 0.0079
362.4 K | 0.1137 ± 0.0081
362.5 K | 0.1144 ± 0.0082
366.3 K | 0.1453 ± 0.011

CC(C)OC(=O)CCC(=O)OC(C)C [bis(1-methylethyl) butanedioate]
Liquid
Details | vapor or sublimation pressure [kPa]
304.4 K | 0.0113 ± 0.0009
307.4 K | 0.0147 ± 0.0011
310.4 K | 0.0186 ± 0.0014
313.4 K | 0.0236 ± 0.0018
316.4 K | 0.0301 ± 0.0023
318.5 K | 0.0352 ± 0.0027
321.4 K | 0.0448 ± 0.0034
323.4 K | 0.0527 ± 0.004
326.4 K | 0.0651 ± 0.0049
328.5 K | 0.0749 ± 0.0058
331.4 K | 0.096 ± 0.0073
333.3 K | 0.1092 ± 0.0081

CC(C)OC(=O)C(=O)OC(C)C [diisopropyl oxalate]
Liquid
Details | vapor or sublimation pressure [kPa]
287.5 K | 0.0149 ± 0.0012
290.4 K | 0.0197 ± 0.0016
293.3 K | 0.0254 ± 0.002
297.3 K | 0.035 ± 0.0027
300.3 K | 0.0452 ± 0.0035
303.3 K | 0.0576 ± 0.0044
306.3 K | 0.0712 ± 0.0054
308.3 K | 0.0846 ± 0.0066
311.2 K | 0.1081 ± 0.0082
313.3 K | 0.1266 ± 0.0094
316.3 K | 0.151 ± 0.011
318.4 K | 0.1722 ± 0.013
318.5 K | 0.1731 ± 0.013
321.2 K | 0.2066 ± 0.015
322.4 K | 0.2247 ± 0.018
323.6 K | 0.2533 ± 0.019
326.4 K | 0.2884 ± 0.021
330.5 K | 0.3766 ± 0.028

CC(C)OC(=O)CCCC(=O)OC(C)C [bis(1-methylethyl) pentanedioate]
Liquid
Details | vapor or sublimation pressure [kPa]
294.5 K | 0.00137 ± 0.00011
297.5 K | 0.00175 ± 0.00014
300.5 K | 0.00246 ± 0.0002
303.4 K | 0.00328 ± 0.00026
306.4 K | 0.00433 ± 0.00035
309.5 K | 0.00594 ± 0.00045
312.5 K | 0.00714 ± 0.00055
315.5 K | 0.00958 ± 0.00076
318.6 K | 0.0126 ± 0.001
322.7 K | 0.017 ± 0.0013
324.4 K | 0.0199 ± 0.0015
327.4 K | 0.0251 ± 0.0019

CC(C)(C)OC(=O)CCC(=O)OC(C)(C)C [di-tert-butyl succinate]
Liquid
Details | vapor or sublimation pressure
323.2 K | 0.0331 ± 0.0026 kPa
326.2 K | 0.0419 ± 0.0032 kPa
331.2 K | 0.0592 ± 0.0044 kPa
333.2 K | 0.0697 ± 0.0054 kPa
335.2 K | 0.0817 ± 0.006 kPa
337.2 K | 0.0885 ± 0.0066 kPa
339.2 K | 0.1043 ± 0.0079 kPa
341.2 K | 0.1198 ± 0.0089 kPa
343.2 K | 0.1351 ± 0.01 kPa
345.2 K | 0.1498 ± 0.011 kPa and 0.1534 ± 0.011 kPa
347.2 K | 0.1716 ± 0.013 kPa
349.2 K | 0.2009 ± 0.015 kPa
351.2 K | 0.2187 ± 0.016 kPa
353.2 K | 0.2523 ± 0.019 kPa
355.2 K | 0.2842 ± 0.021 kPa

CC(C)(C)OC(=O)CCCC(=O)OC(C)(C)C [di-tert-butyl glutarate]
Liquid
Details | vapor or sublimation pressure [kPa]
295.2 K | 0.00104 ± 9e-05
297.2 K | 0.0013 ± 0.00011
299.2 K | 0.00157 ± 0.00012
301.2 K | 0.00187 ± 0.00015
303.2 K | 0.00231 ± 0.00018
305.2 K | 0.00276 ± 0.00022
307.2 K | 0.00334 ± 0.00026
309.2 K | 0.00393 ± 0.00031
311.2 K | 0.00471 ± 0.00038
313.2 K | 0.00581 ± 0.00045
315.2 K | 0.00674 ± 0.00052
317.2 K | 0.00801 ± 0.00061
319.2 K | 0.00909 ± 0.00068
321.2 K | 0.0104 ± 0.0008
323.2 K | 0.0123 ± 0.001
325.2 K | 0.0152 ± 0.0012

CC(C)(C)OC(=O)C(=O)OC(C)(C)C [di-tert-butyl oxalate]
Details | vapor or sublimation pressure [kPa]
293.8 K, Crystal | 0.00391 ± 0.00038
296.7 K, Crystal | 0.0058 ± 0.00049
299.7 K, Crystal | 0.00793 ± 0.00065
302.7 K, Crystal | 0.0109 ± 0.0009
305.7 K, Crystal | 0.0154 ± 0.0013
308.3 K, Crystal | 0.0201 ± 0.0019
308.8 K, Crystal | 0.0217 ± 0.002
311.2 K, Crystal | 0.0276 ± 0.0024
311.7 K, Crystal | 0.0293 ± 0.0025
314.2 K, Crystal | 0.0384 ± 0.0032
314.7 K, Crystal | 0.0405 ± 0.0033
317.6 K, Crystal | 0.0574 ± 0.0047
320.7 K, Crystal | 0.0769 ± 0.006
323.2 K, Crystal | 0.0956 ± 0.0076
323.6 K, Crystal | 0.1 ± 0.0079
326.6 K, Crystal | 0.1313 ± 0.01
329.6 K, Crystal | 0.1637 ± 0.013
333.2 K, Crystal | 0.2253 ± 0.023
333.7 K, Crystal | 0.2468 ± 0.024
338.2 K, Crystal | 0.3739 ± 0.028
338.6 K, Crystal | 0.3689 ± 0.028
345.6 K, Liquid | 0.4066 ± 0.03
346.7 K, Liquid | 0.4358 ± 0.033
347.6 K, Liquid | 0.4703 ± 0.034
348.6 K, Liquid | 0.4816 ± 0.035
351.5 K, Liquid | 0.5565 ± 0.041
351.7 K, Liquid | 0.5963 ± 0.044
352.5 K, Liquid | 0.6078 ± 0.044
354.5 K, Liquid | 0.6715 ± 0.049
356.5 K, Liquid | 0.7609 ± 0.056
357.5 K, Liquid | 0.799 ± 0.059
360.7 K, Liquid | 0.9613 ± 0.074
361.2 K, Liquid | 1 ± 0.076
363.7 K, Liquid | 1.053 ± 0.076
366.2 K, Liquid | 1.252 ± 0.093
371.2 K, Liquid | 1.638 ± 0.12

CC(C)OC(=O)CC(=O)OC(C)C [diisopropyl malonate]
Liquid
Details | vapor or sublimation pressure [kPa]
289.3 K | 0.00784 ± 0.00064
292.5 K | 0.0105 ± 0.0008
295.4 K | 0.0139 ± 0.0011
298.4 K | 0.0172 ± 0.0013
301.4 K | 0.0228 ± 0.0018
304.4 K | 0.0293 ± 0.0023
307.4 K | 0.0375 ± 0.0029
310.4 K | 0.0471 ± 0.0036
313.4 K | 0.0581 ± 0.0044
315.4 K | 0.0688 ± 0.0053
316.5 K | 0.0757 ± 0.0057
318.5 K | 0.0862 ± 0.0066
319.4 K | 0.0965 ± 0.0072
321.5 K | 0.1068 ± 0.0078
322.5 K | 0.1138 ± 0.009
323.5 K | 0.1282 ± 0.01
325.4 K | 0.1468 ± 0.011
